The text below walks through data of ChEMBL document CHEMBL5500342, “Rational molecular design converting fascaplysin derivatives to potent broad-spectrum inhibitors against bacterial pathogens via targeting FtsZ” (Eur J Med Chem, 2024).

As usually defined, the MIC is the lowest concentration found to suppress growth. Broadly, the MBC is the smallest concentration meeting the test's criterion for killing.

The test system of experiment [1] is Staphylococcus aureus. The experiment in a line: Inhibition of biofilm formation in methicillin-resistant Staphylococcus aureus ATCC43300 assessed as decrease in biofilm formation rate at 4 times of MIC incubated for 24 hrs by crystal violet staining based analysis relative to control. More on the design: scale not given: the % may be the effect or the level left. The experiment is classed as functional.

Experiment [2] relates to Escherichia coli. The experiment in a line: Drug resistance, ratio of MIC for penicillin-susceptible Escherichia coli ATCC25922 incubated for 18 to 24 hrs and measured after 21 passages to MIC for penicillin-susceptible Escherichia coli ATCC25922 measured after 18 to 24 hrs. The experiment is classed as functional.
For experiment [3], the system named is Cell membrane. Kind of experiment: Disruption of cell membrane integrity in penicillin-susceptible Escherichia coli ATCC25922 at 4 times of MIC incubated for 2 hrs by scanning electron microscopic analysis. In kind it is cell membranes.
Experiment [4] has as its system Cell membrane. The experiment in a line: Disruption of cell membrane integrity in methicillin-resistant Staphylococcus aureus ATCC43300 assessed as morphological deformation at 4 times of MIC incubated for 2 hrs by transmission electron microscopic analysis. In kind it is cell membranes.
In experiment [5] the target is T1, Cell division protein FtsZ (Escherichia coli K-12) (UniProt P0A9A6).
T1 sequence (whole entry): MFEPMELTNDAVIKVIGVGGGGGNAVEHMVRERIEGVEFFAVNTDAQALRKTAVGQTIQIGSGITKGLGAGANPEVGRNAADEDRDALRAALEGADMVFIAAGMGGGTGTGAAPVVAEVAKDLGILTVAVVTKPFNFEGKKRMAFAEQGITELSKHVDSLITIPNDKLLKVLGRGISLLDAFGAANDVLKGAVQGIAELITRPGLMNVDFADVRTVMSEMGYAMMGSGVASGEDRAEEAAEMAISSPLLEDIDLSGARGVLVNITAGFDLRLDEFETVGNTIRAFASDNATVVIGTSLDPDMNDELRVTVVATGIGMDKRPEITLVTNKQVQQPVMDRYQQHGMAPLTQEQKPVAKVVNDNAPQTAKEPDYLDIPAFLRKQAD
Kind of experiment: Enhancement of FtsZ GTPase activity in penicillin-susceptible Escherichia coli ATCC25922 upto 8 microg/ml incubated for 30 mins by malachite green phosphate based assay relative to control. The conditions noted are these: dose <= 8.0 µg/ml.

Experiment [6] has as its system Staphylococcus aureus. Kind of experiment: Antibacterial activity against methicillin-resistant Staphylococcus aureus ATCC43300 assessed as log reduction in bacterial count measured within 0.5 hrs by time kill kinetics assay. In kind it is functional.
The target of experiment [7] is T1, Cell division protein FtsZ (Escherichia coli K-12). Kind of experiment: Induction of FtsZ polymerization in penicillin-susceptible Escherichia coli ATCC25922 assessed as thicker bundles at 4 microg/ml preincubated for 10 mins followed by GTP addition and measured after 15 mins by transmission electron microscopic analysis. The conditions noted are these: filed as activator, dose 4.0 µg/ml, time 25.0 min.

Experiment [8] has as its system Cell membrane. The experiment in a line: Disruption of cell membrane integrity in methicillin-resistant Staphylococcus aureus ATCC43300 assessed as increase in cellular debris at 4 times of MIC incubated for 2 hrs by transmission electron microscopic analysis. In kind it is cell membranes.
For experiment [9], the system named is Cell membrane. The experiment in a line: Disruption of cell membrane integrity in methicillin-resistant Staphylococcus aureus ATCC43300 assessed as leakage of intracellular contents at 4 times of MIC incubated for 2 hrs by transmission electron microscopic analysis. In kind it is cell membranes.
Experiment [10] concerns Escherichia coli. The experiment in a line: Antibacterial activity against penicillin-susceptible Escherichia coli ATCC25922 assessed as reduction in bacterial count incubated for 24 hrs by time kill kinetics assay. In kind it is functional, organism-based.
The test system of experiment [11] is Cell membrane. Kind of experiment: Disruption of cell membrane integrity in methicillin-resistant Staphylococcus aureus ATCC43300 assessed as cell wall disruption at 4 times of MIC incubated for 2 hrs by transmission electron microscopic analysis. The experiment is classed as cell membranes.
The subject of experiment [12] is Staphylococcus aureus. The experiment in a line: Inhibition of biofilm formation in methicillin-resistant Staphylococcus aureus ATCC43300 incubated for 24 hrs by crystal violet staining based analysis. In kind it is functional, organism-based. The conditions noted are these: dose 0.78-100 µg/ml.
In experiment [13] the test system is Cell membrane. The experiment in a line: Disruption of cell membrane integrity in methicillin-resistant Staphylococcus aureus ATCC43300 assessed as appearance of striated structures at 4 times of MIC incubated for 2 hrs by scanning electron microscopic analysis. In kind it is cell membranes.
The target of experiment [14] is T1, Cell division protein FtsZ (Escherichia coli K-12). Kind of experiment: Induction of recombinant FtsZ polymerization in penicillin-susceptible Escherichia coli ATCC25922 assessed as stabilization of FtsZ bundles at 1 to 4 microg/ml incubated for 10 mins by light scattering assay. Conditions: filed as activator, dose 1-4 µg/ml.
In experiment [15] the test system is Staphylococcus aureus. The experiment in a line: Antibacterial activity against methicillin-resistant Staphylococcus aureus ATCC43300 at assessed as reduction in bacterial growth at 0.5 times of MIC incubated for 18 to 24 hrs and measured after 25 passages by drug resistance assay. The experiment is classed as functional, organism-based.
Experiment [16] relates to Salmonella enteritidis. The experiment in a line: Antibacterial activity against Salmonella enteritidis BNCC281091 assessed as inhibition of bacterial growth incubated for 18 hrs by CLSI protocol based microbroth dilution method. In kind it is functional, Salmonella enterica subsp. enterica serovar Enteritidis. The conditions noted are these: Salmonella enterica. A general note: Dilution methods test growth across graded concentrations, often in twofold steps.

For experiment [17], the target named is T2, Cell division protein FtsZ (Staphylococcus aureus) (UniProt P0A031).
T2 sequence (whole entry): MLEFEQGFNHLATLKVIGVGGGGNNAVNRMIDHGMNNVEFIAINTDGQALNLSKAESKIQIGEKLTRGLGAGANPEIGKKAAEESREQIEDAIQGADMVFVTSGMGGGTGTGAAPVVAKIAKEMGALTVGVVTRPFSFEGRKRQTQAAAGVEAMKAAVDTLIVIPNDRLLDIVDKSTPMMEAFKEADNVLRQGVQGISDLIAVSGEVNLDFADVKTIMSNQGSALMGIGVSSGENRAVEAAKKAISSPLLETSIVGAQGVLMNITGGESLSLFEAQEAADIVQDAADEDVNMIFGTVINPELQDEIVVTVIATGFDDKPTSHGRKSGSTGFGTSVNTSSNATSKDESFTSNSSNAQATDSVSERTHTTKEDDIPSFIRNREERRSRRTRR
Kind of experiment: Effect on FtsZ GTPase activity in methicillin-resistant Staphylococcus aureus ATCC43300 upto 8 microg/ml incubated for 30 mins by malachite green phosphate based assay. Conditions: dose <= 8.0 µg/ml.

The target of experiment [18] is T1, Cell division protein FtsZ (Escherichia coli K-12). Kind of experiment: Induction of FtsZ polymerization in penicillin-susceptible Escherichia coli ATCC25922 assessed as larger bundles at 4 microg/ml preincubated for 10 mins followed by GTP addition and measured after 15 mins by transmission electron microscopic analysis. Conditions: filed as activator, dose 4.0 µg/ml, time 25.0 min.

Experiment [19] relates to Staphylococcus aureus. Kind of experiment: Antibacterial activity against methicillin-resistant Staphylococcus aureus ATCC43300 assessed as inhibition of bacterial growth incubated for 18 hrs by CLSI protocol based microbroth dilution method. In kind it is functional.
For experiment [20], the target named is T1, Cell division protein FtsZ (Escherichia coli K-12). Kind of experiment: Induction of recombinant FtsZ polymerization in penicillin-susceptible Escherichia coli ATCC25922 assessed as stabilization of FtsZ polymers at 1 to 4 microg/ml incubated for 10 mins by light scattering assay. Conditions: filed as activator, dose 1-4 µg/ml.
Experiment [21] relates to Escherichia coli. Kind of experiment: Bactericidal activity against penicillin-susceptible Escherichia coli ATCC25922 incubated for 24 hrs by CLSI protocol based microbroth dilution method. In kind it is functional.
Experiment [22] concerns Staphylococcus aureus. Kind of experiment: Inhibition of biofilm formation in methicillin-resistant Staphylococcus aureus ATCC43300 assessed as decrease in biofilm formation rate at 6.25 microg/ml incubated for 24 hrs by crystal violet staining based analysis relative to control. In kind it is functional. Also noted: scale not given: the % may be the effect or the level left. The conditions noted are these: dose 6.25 µg/ml.

Experiment [23] concerns Cell membrane. Kind of experiment: Disruption of cell membrane integrity in methicillin-resistant Staphylococcus aureus ATCC43300 assessed as appearance of collapsed cells at 4 times of MIC incubated for 2 hrs by transmission electron microscopic analysis. The experiment is classed as cell membranes.
Experiment [24] deals with Escherichia coli. Kind of experiment: Antibacterial activity against penicillin-susceptible Escherichia coli ATCC25922 assessed as log reduction in bacterial count measured after 8 hrs by time kill kinetics assay. In kind it is functional, organism-based.

The source made the active and inactive calls.

With `O=C1c2ccccc2-[n+]2ccc3c([nH]c4ccc(-c5ccccc5C(F)(F)F)cc43)c21.[Cl-]`, the Activity in experiment [1] is 18%; in [5] it was 10%; in experiment [6], over 3 log10CFU/ml; in experiment [10], “Dose-Dependent Effect”. In addition, in experiment [2], the Ratio was 12. The result in experiment [3], in experiment [4], in experiment [7], in experiment [8], in [9] and in [11] was Active. Besides, the outcome in [13], in experiment [14], in experiment [15], in experiment [18] and in experiment [20] was Active. For the same compound, the inhibition entry in experiment [12] is “Dose-Dependent Effect”. Also, the figures for the MIC in experiment [16] and in [19] were 12.5 µg/mL and 1.56 µg/mL, respectively. In addition, the outcome in [17] was inactive. Besides, in experiment [21], the MBC was 50 µg/mL.

Turning to `O=C1c2ccccc2-[n+]2ccc3c([nH]c4ccc(-c5ccccc5Cl)cc43)c21.[Cl-]`, the result in experiment [3], in [4], in experiment [7], in [13], in experiment [14] and in [15] was Active. Moreover, the outcome in experiment [18], in [20] and in experiment [23] was Active. The Activity in [5] was 10%; in experiment [6] it was over 3 log10CFU/ml; in experiment [22], 49%. For the same compound, the inhibition entry in [12] is “Dose-Dependent Effect”. The MIC in experiment [16] was 50 µg/mL; in experiment [19] it was 1.56 µg/mL. Moreover, the outcome in experiment [17] was inactive. Also, the MBC in [21] turned out to be 50 µg/mL.

With `O=C1c2ccccc2-[n+]2ccc3c([nH]c4ccc(-c5ccccc5F)cc43)c21.[Cl-]`, the outcome in experiment [3], in [4], in experiment [7], in [13], in [14] and in experiment [15] was Active. Also, the result in experiment [18], in [20] and in experiment [23] was Active. The results for the Activity in experiment [5] and in experiment [6] were 10% and over 3 log10CFU/ml, respectively. The outcome in experiment [24] and in [17] was inactive. Moreover, the inhibition entry in experiment [12] was “Dose-Dependent Effect”. Also, the MIC in [16] turned out to be 12.5 µg/mL; in [19], 0.195 µg/mL. In experiment [21], this compound had an MBC of 6.25 µg/mL.
